Reference: the supplement of paper PMC11451515

Test system: SEM cells
Experiment: cell viability relative to DMSO control; higher = less cytotoxic
Details: 48 h
In short: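 In 1536-well plates, 5 μl of leukemia cells were seeded per well: 500 cells/well for NOMO1 or SEM and 1000 cells/well for P12-Ichikawa. Each line had first been adapted for at least four passages in each medium. Library compounds in DMSO were pin-dosed at 11 threefold concentrations between 47 μM and 0.79 nM, and CellTiter-Glo One luminescence was read after 48 h at 37°C. Viability is a per-plate percentage relative to DMSO wells, with cell-free wells as background.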

[1] = HPLM + 10% dialyzed FBS, 0.000781 µM
[2] = HPLM + 10% dialyzed FBS, 0.00234 µM
[3] = HPLM + 10% dialyzed FBS, 0.00702 µM
[4] = HPLM + 10% dialyzed FBS, 0.0211 µM
[5] = HPLM + 10% dialyzed FBS, 0.0632 µM
[6] = HPLM + 10% dialyzed FBS, 0.19 µM
[7] = HPLM + 10% dialyzed FBS, 0.569 µM
[8] = HPLM + 10% dialyzed FBS, 1.71 µM
[9] = HPLM + 10% dialyzed FBS, 5.12 µM
[10] = HPLM + 10% dialyzed FBS, 15.4 µM
[11] = HPLM + 10% dialyzed FBS, 46.1 µM
[12] = RPMI 5 mM glucose + 10% FBS, 0.000781 µM
[13] = RPMI 5 mM glucose + 10% FBS, 0.00234 µM
[14] = RPMI 5 mM glucose + 10% FBS, 0.00702 µM
[15] = RPMI 5 mM glucose + 10% FBS, 0.0211 µM
[16] = RPMI 5 mM glucose + 10% FBS, 0.0632 µM
[17] = RPMI 5 mM glucose + 10% FBS, 0.19 µM
[18] = RPMI 5 mM glucose + 10% FBS, 0.569 µM
[19] = RPMI 5 mM glucose + 10% FBS, 1.71 µM
[20] = RPMI 5 mM glucose + 10% FBS, 5.12 µM
[21] = RPMI 5 mM glucose + 10% FBS, 15.4 µM
[22] = RPMI 5 mM glucose + 10% FBS, 46.1 µM
[23] = RPMI 5 mM glucose + 10% dialyzed FBS, 0.000781 µM
[24] = RPMI 5 mM glucose + 10% dialyzed FBS, 0.00234 µM
[25] = RPMI 5 mM glucose + 10% dialyzed FBS, 0.00702 µM
[26] = RPMI 5 mM glucose + 10% dialyzed FBS, 0.0211 µM
[27] = RPMI 5 mM glucose + 10% dialyzed FBS, 0.0632 µM
[28] = RPMI 5 mM glucose + 10% dialyzed FBS, 0.19 µM
[29] = RPMI 5 mM glucose + 10% dialyzed FBS, 0.569 µM
[30] = RPMI 5 mM glucose + 10% dialyzed FBS, 1.71 µM
[31] = RPMI 5 mM glucose + 10% dialyzed FBS, 5.12 µM
[32] = RPMI 5 mM glucose + 10% dialyzed FBS, 15.4 µM
[33] = RPMI 5 mM glucose + 10% dialyzed FBS, 46.1 µM

Structure (SMILES)	cell viability [1] [%]	cell viability [2] [%]	cell viability [3] [%]	cell viability [4] [%]	cell viability [5] [%]	cell viability [6] [%]	cell viability [7] [%]	cell viability [8] [%]	cell viability [9] [%]	cell viability [10] [%]	cell viability [11] [%]	cell viability [12] [%]	cell viability [13] [%]	cell viability [14] [%]	cell viability [15] [%]	cell viability [16] [%]	cell viability [17] [%]	cell viability [18] [%]	cell viability [19] [%]	cell viability [20] [%]	cell viability [21] [%]	cell viability [22] [%]	cell viability [23] [%]	cell viability [24] [%]	cell viability [25] [%]	cell viability [26] [%]	cell viability [27] [%]	cell viability [28] [%]	cell viability [29] [%]	cell viability [30] [%]	cell viability [31] [%]	cell viability [32] [%]	cell viability [33] [%]
Cc1cccc(C)c1OCC(=O)N[C@@H](Cc1ccccc1)[C@@H](O)C[C@H](Cc1ccccc1)NC(=O)[C@H](C(C)C)N1CCCNC1=O	80.3	94.2	86.7	96.4	100	81.4	85.6	76	78.5	65.4	39	97.7	94.2	102	94.8	108	103	95.9	90.9	79.6	77.1	36.7	79.8	101	93.7	102	104	100	107	104	85.5	69.1	31.2
C[C@@H]1COCCN1C\2=C\C(=O)N\3CC[C@H](N(CC4=CN=CC(=C4)Cl)C3=N2)C(F)(F)F	88	83.8	91.6	97.5	85.9	97.8	91.5	94	78.8	43.2	24.8	109	109	120	96.4	115	117	122	88.5	74.4	43.4	25.1	89.6	92.3	96.9	90.9	83.4	98.7	107	89.2	71.2	42.4	34.1
C[S+](=O)([O-])N(Cc1ccco1)CC(O)Cn1c2ccccc2c2ccccc21 (stereo not drawn)	106	88.5	100	100	99.5	98	92.8	97.6	55.4	56.5	18.5	115	113	127	119	122	116	106	109	63.3	59.1	10.7	91.8	99.5	108	96.7	102	106	91	78.4	46.3	35.9	8.62
C[C@@H]1CN[C@H]2[C@@H](C)[C@@]\3(CC[C@H]\4[C@@H]5C/C=C6/C[C@@H](O)CC[C@]6(C)[C@H]5CC4=C3C)O[C@@H]2C1	78.3	122	119	119	129	118	127	114	114	98.4	84.6	77.7	119	132	141	118	115	117	120	105	109	93.5											
O=C(Nc1cccc(Nc2ncc(Br)c(NCCc3cnc[nH]3)n2)c1)N1CCCC1	77.4	78.4	79.3	72.1	67.4	47.5	32.7	17.4	9.22	5.65	1.1	87.7	77.9	80.5	75.9	69.1	41	21.1	8.73	3.21	1.59	1.07	82.5	62.9	71	64.2	66.9	38.6	26.6	12.8	7.16	3.89	1.39
CCC1(c2ccc(N)cc2)CCC(=O)NC1=O (stereo not drawn)	114	113	127	114	118	114	107	55.3	108	95.1	96.6																						
O=C(CO)N1CCC(c2n[nH]c(-c3ccc(Cl)cc3)c2-c2ccncn2)CC1	102	119	119	112	110	104	98.7	101	75.6	64.9	31	114	128	123	127	107	123	109	106	85.3	49.4	16	131	108	108	141	110	119	128	100	79.7	51.5	20.1
OCc1ccc(-c2nn(Cc3ccccc3)c3ccccc23)o1	115	128	124	111	113	113	117	38.1	96.1	44.6	19.3	116	110	126	100	119	107	98.1	18.2	80.9	37.4	11.2											
CC(=O)OCC(=O)[C@@]12\N=C(C)/O[C@@H]1C[C@H]3[C@@H]4CCC/5=C/C(=O)/C=C\[C@]5(C)[C@H]4[C@@H](O)C[C@]23C	75.3	85.5	87.8	85.1	68	97	97.8	100	92.5	90.1	24.9	86.6	103	91.5	102	66.3	109	97.9	113	86.9	86.6	18.2	101	95.2	107	106	80.7	104	105	115	86.8	79.8	19.4
